Data published in ChEMBL document CHEMBL3085736, “Identification of sulfonic acids as efficient ecto-5'-nucleotidase inhibitors” (Eur J Med Chem, 2013).

Legend:
5'-nucleotidase [1] = biological target: T1, 5'-nucleotidase (Homo sapiens, UniProt P21589); experiment: Inhibition of human recombinant ecto-5'-nucleotidase expressed in african green monkey COS7 cells using adenosine monophosphate as substrate at 1 mM preincubated for 10 mins before substrate addition measured after 10 mins by capillary electrophoresis; format: cell-based; settings: COS-7
T1 sequence (P21589 whole entry): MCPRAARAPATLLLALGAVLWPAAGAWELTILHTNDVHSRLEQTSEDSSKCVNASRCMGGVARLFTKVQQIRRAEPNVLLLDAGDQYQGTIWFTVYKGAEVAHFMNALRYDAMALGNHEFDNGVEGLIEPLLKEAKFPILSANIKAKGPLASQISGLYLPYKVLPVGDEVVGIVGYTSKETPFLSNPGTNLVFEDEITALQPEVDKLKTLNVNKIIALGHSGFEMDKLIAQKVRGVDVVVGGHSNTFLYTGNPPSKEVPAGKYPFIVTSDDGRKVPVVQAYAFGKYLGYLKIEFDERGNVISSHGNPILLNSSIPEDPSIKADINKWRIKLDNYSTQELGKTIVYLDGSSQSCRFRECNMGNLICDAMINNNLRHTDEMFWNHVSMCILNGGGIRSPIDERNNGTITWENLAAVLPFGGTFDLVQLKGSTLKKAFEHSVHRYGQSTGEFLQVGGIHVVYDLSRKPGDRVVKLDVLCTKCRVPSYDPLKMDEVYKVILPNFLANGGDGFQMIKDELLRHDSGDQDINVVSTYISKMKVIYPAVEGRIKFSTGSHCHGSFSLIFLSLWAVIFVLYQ

[2] = biological target: T2, 5'-nucleotidase (Rattus norvegicus) (UniProt P21588); experiment: Inhibition of rat recombinant ecto-5'-nucleotidase expressed in african green monkey COS7 cells using adenosine monophosphate as substrate at 1 mM preincubated for 10 mins before substrate addition measured after 10 mins by capillary electrophoresis; format: cell-based; settings: COS-7
T2 sequence (whole entry): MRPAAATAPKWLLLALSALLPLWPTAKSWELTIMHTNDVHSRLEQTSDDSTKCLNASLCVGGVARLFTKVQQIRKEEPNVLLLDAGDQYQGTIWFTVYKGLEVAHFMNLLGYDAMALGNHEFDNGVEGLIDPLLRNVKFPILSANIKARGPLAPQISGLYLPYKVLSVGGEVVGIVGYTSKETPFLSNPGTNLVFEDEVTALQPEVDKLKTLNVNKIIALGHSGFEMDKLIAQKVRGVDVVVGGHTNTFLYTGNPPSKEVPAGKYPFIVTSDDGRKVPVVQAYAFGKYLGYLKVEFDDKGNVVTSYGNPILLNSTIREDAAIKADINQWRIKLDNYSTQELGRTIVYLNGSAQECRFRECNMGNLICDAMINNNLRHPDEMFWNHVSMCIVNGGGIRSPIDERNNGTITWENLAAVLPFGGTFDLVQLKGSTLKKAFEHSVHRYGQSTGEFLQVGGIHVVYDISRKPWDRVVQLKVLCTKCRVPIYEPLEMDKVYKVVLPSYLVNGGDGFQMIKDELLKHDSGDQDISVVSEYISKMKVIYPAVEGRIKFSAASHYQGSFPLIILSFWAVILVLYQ

NCI-H157 [3] = experiment: Cytotoxicity against human NCI-H157 cells at 10 uM after 24 hrs by sulforhodamine B assay; format: functional
NCI-H157 [4] = experiment: Cytotoxicity against human NCI-H157 cells at 100 uM after 24 hrs by sulforhodamine B assay; format: functional
HCEC = experiment: Cytotoxicity against HCEC after 24 hrs by sulforhodamine B assay; format: cell-based; settings: human
5'-nucleotidase [5] = biological target: T1, 5'-nucleotidase; experiment: Inhibition of human recombinant ecto-5'-nucleotidase expressed in african green monkey COS7 cells using adenosine monophosphate as substrate preincubated for 10 mins before substrate addition measured after 10 mins by capillary electrophoresis; format: cell-based, COS-7
5'-nucleotidase [6] = biological target: T3, 5'-nucleotidase (Rattus norvegicus, UniProt P21588); experiment: Inhibition of rat recombinant ecto-5'-nucleotidase expressed in african green monkey COS7 cells using adenosine monophosphate as substrate preincubated for 10 mins before substrate addition measured after 10 mins by capillary electrophoresis; format: cell-based, COS-7
T3 sequence (P21588 whole entry): T2 sequence (whole entry)

Compound	inhibition (5'-nucleotidase [1]) [%]	inhibition [2] [%]	IC50 (5'-nucleotidase [5]) [µM]	IC50 (5'-nucleotidase [6]) [µM]	Activity (NCI-H157 [3]) [%]	Activity (NCI-H157 [4]) [%]	Activity (HCEC)
CC1=NN(c2ccccc2)C(=O)C1 [EDARAVONE]	15	29			40	70	Non-toxic
Nc1c(S(=O)(=O)O)cc(Br)c2c1C(=O)c1ccccc1C2=O	4	27				<40	Non-toxic
Nc1ccc(S(=O)(=O)O)cc1			8.2	70.1		<40	Non-toxic
Nc1c(O)cc(S(=O)(=O)O)c2cc([N+](=O)[O-])ccc12			41	31.6		<40	Non-toxic
Nc1ccc(S(=O)(=O)O)c2ccccc12	43	28				<40	Non-toxic
CC[C@]1(O)C[C@H]2CN(CCc3c([nH]c4ccccc34)[C@@](C(=O)OC)(c3cc4c(cc3OC)N(C=O)[C@H]3[C@@](O)(C(=O)OC)[C@H](OC(C)=O)[C@]5(CC)C=CCN6CC[C@]43[C@@H]65)C2)C1 [VINCRISTINE]						47	

Second part, led by results:

inhibition (5'-nucleotidase [1]) [%]	inhibition [2] [%]	IC50 (5'-nucleotidase [5]) [µM]	IC50 (5'-nucleotidase [6]) [µM]	Compound	Activity (NCI-H157 [3]) [%]	Activity (NCI-H157 [4]) [%]	Activity (HCEC)
35	20			Nc1cc(S(=O)(=O)[O-])cc2ccccc12.[Na+]		48	Non-toxic
		6.1	44.3	CC1=NN(c2ccc(S(=O)(=O)O)cc2)C(=O)C1	40	72	Non-toxic
		47.6	72.9	Nc1ccc(Nc2ccc([N+](=O)[O-])cc2)c(S(=O)(=O)O)c1		42	Non-toxic
		21.8	76.6	Nc1cc(S(=O)(=O)O)cc2cc(S(=O)(=O)O)cc(O)c12		<40	Non-toxic
	40	30.5		NC(=O)Nc1ccc2cc(S(=O)(=O)O)cc(O)c2c1		<40	Non-toxic
		42.1	77.3	NS(=O)(=O)O [SULFAMATE]		<40	Non-toxic
		1.32	10.4	Nc1ccc2cc(S(=O)(=O)O)cc(O)c2c1		<40	Non-toxic
		13.5	18.6	Cc1ccc2nc(-c3ccc(N)cc3)sc2c1S(=O)(=O)O		<40	Non-toxic
